Measurements from patent US10344019B2 (priority 2010, dated 2019).
Where two headings read alike, the source gives them in different places.

How the values were obtained:
Assay type in all cases: cell-based
[1] = system: HCV 2b Rluc cells (NS5A chimeric genotype 2a JFH-1 replicon with genotype 2b MD2b-1 NS5A gene, M31 present); assay: microbe, parasite or virus in culture; details: read-out: 2b
Outline: (§1)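 Replicon cells stably carrying the listed RLuc-encoding dicistronic replicons were seeded and treated with DMSO serial dilutions of compound (10 mM stocks) diluted into culture medium. After 72 h, cells were lysed and Renilla luciferase activity measured. EC50 was derived by non-linear regression.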

[2] = system: HCV 4a Rluc cells (NS5A chimeric genotype 1b Con1 replicon with genotype 4a NS5A gene); assay: microbe, parasite or virus in culture; details: read-out: 4a
Outline: as §1

[3] = system: HCV 3a RLuc cells (NS5A chimeric genotype 1b Con1 replicon with consensus genotype 3a NS5A gene); assay: microbe, parasite or virus in culture; details: Hepatitis C virus, read-out: 3a, genotype 3a NS5A chimeric replicon
Outline: as §1

[4] = system: HCV 1a RLuc cells (dicistronic genotype 1a H77 replicon, RLuc reporter); assay: microbe, parasite or virus in culture; details: Hepatitis C virus, genotype 1a H77 RLuc replicon; read-out: 1a
Outline: (§2)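 Replicons used: genotype 1b Con1, 1a H77, 2a JFH-1, and a 2a JFH-1 chimera with J6-strain NS5A (M31 present), all dicistronic.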

[5] = system: HCV 2a JFH-1 Rluc cells (dicistronic genotype 2a JFH-1 replicon, RLuc reporter); assay: microbe, parasite or virus in culture; details: Hepatitis C virus, genotype 2a JFH-1 RLuc replicon; read-out: 2a JFH
Outline: as §2

[6] = system: HCV 2a Rluc cells (NS5A chimeric genotype 2a JFH-1 replicon with genotype 2a J6 strain NS5A gene, M31 present); assay: HCV replicon reporter assay, genotype 2a J6 (M31 present); details: read-out: 2a J6
Outline: as §2

[7] = system: Q30R in genotype 1a NS5A, 1a Rluc replicon transfected into Huh-7 cured-51 cells; assay: HCV replicon assay, resistance mutant 1a Q30R
Experimental: Evaluation of cell-based anti-HCV activity: Antiviral potency (EC50) was determined using a Renilla luciferase (RLuc)-based HCV replicon reporter assay. To perform the assay for genotype 1 and 2a JFH-1, HCV 1b RLuc cells (harboring a dicistronic genotype 1b Con1 replicon that encodes a RLuc reporter), or HCV 1a RLuc cells (harboring a dicistronic genotype 1a H77 replicon that encodes a RLuc reporter), or HCV 2a JFH-1 Rluc cells (harboring a dicistronic genotype 2a JFH-1 replicon that encodes a RLuc reporter) were dispensed into 384-well plates. To perform the assay for genotype 2a (with M31 present) or 2b, HCV 2a Rluc or 2b Rluc cells (both with M31 present) harboring a dicistronic NS5A chimeric genotype 2a JFH-1 replicon that encodes a RLuc reporter and either genotype 2a J6 strain NS5A gene or genotype 2b MD2b-1 NS5A gene (based on Los Alamos HCV database isolates, both with M31 present) respectively, were dispensed into 384-well plates. To perform the assay for genotype 3 and 4, HCV 3a RLuc or 4a Rluc cells harboring a dicistronic NS5A chimeric genotype 1b Con1 replicon that encodes a RLuc reporter and either a consensus genotype 3a NS5A gene or genotype 4a NS5A gene (based on Los Alamos HCV database isolates) respectively, were dispensed into 384-well plates. Compounds were re-suspended in DMSO at a concentration of 10 mM and serially diluted in DMSO either manually or using an automated pipeting instrument. Serially diluted compounds were mixed with cell culture media and added to the seeded cells. […] 72 hours later, cells were lysed and Renilla luciferase activity quantified as recommended by the manufacturer (Promega-Madison, Wis.). Non-linear regression was performed to calculate EC50 values.
To determine the antiviral potency (EC50) against resistance mutants, resistance mutations, including M28T, Q30R, Q30H, L31M, and Y93C in genotype 1a NS5A and Y93H in genotype 1b NS5A, were introduced individually into either 1a Rluc or 1b Rluc replicons described above by site directed mutagenesis. Replicon RNA of each resistant mutant was transfected into Huh-7 cured-51 cells and antiviral potency was determined on these transfected cells as described above.

[8] = system: HCV 1b RLuc cells (dicistronic genotype 1b Con1 replicon, RLuc reporter); assay: microbe, parasite or virus in culture; details: Hepatitis C virus, read-out: 1b (nM)
Outline: as §2

[9] = Hepatitis C virus, Huh-7, read-out: 1a Q30R

SMILES | EC50 ([1]; Hepatitis C virus) [nM] | EC50 ([2]; Hepatitis C virus) [nM] | EC50 [3] [nM] | EC50 [4] [nM] | EC50 [5] [nM] | EC50 ([6]; Hepatitis C virus) [nM] | EC50 [7, 9] [nM] | EC50 ([1]; genotype 2b NS5A chimeric replicon, M31 present) [nM] | EC50 ([2]; genotype 4a NS5A chimeric replicon) [nM] | EC50 ([6]; genotype 2a J6 NS5A chimeric replicon, M31 present) [nM] | EC50 ([7]; read-out: 1a Q30R, genotype 1a NS5A Q30R resistance mutant) [nM] | EC50 [8] [nM]
COC[C@H]1C[C@@H](c2nc3ccc4cc5c(cc4c3[nH]2)OCc2cc(-c3cnc([C@@H]4CCCN4C(=O)[C@@H](NC(=O)OC)C(C)C)[nH]3)ccc2-5)N(C(=O)[C@H](NC(=O)OC)c2ccccc2)C1 [Example 538] | 0.001 to 0.999 | 0.001 to 0.99 | 0.001 to 0.99 | 0.001 to 0.999 | 0.001 to 0.999 | 0.001 to 0.999 | 0.001 to 0.999 |  |  |  |  | 
COC(=O)N[C@H](C(=O)N1CCC[C@H]1c1ncc(-c2ccc3c(c2)COc2cc4c(ccc5nc([C@@H]6CCCN6C(=O)[C@H](NC(=O)OC)c6ccccc6)[nH]c54)cc2-3)[nH]1)[C@@H](C)OC [Example 588] | 0.001 to 0.999 | 0.001 to 0.99 | 0.001 to 0.99 | 0.001 to 0.999 | 0.001 to 0.999 | 0.001 to 0.999 | 0.001 to 0.999 |  |  |  |  | 
COC(=O)N[C@H](C(=O)N1CCC[C@H]1c1ncc(-c2ccc3c(c2)COc2cc4c(ccc5nc([C@@H]6C[C@H](C)CN6C(=O)[C@H](NC(=O)OC)c6ccccc6)[nH]c54)cc2-3)[nH]1)C(C)C [Example 543] | 0.001 to 0.999 | 0.001 to 0.99 | 0.001 to 0.99 | 0.001 to 0.999 | 0.001 to 0.999 | 0.001 to 0.999 | 0.001 to 0.999 |  |  |  |  | 
COC(=O)N[C@H](C(=O)N1CCC[C@H]1c1ncc(-c2ccc3c(c2)COc2cc4c(ccc5nc([C@@H]6C[C@H](C)CN6C(=O)[C@@H](NC(=O)OC)C(C)C)[nH]c54)cc2-3)[nH]1)C(C)C [Example 526] | 0.001 to 0.999 | 0.001 to 0.99 | 0.001 to 0.99 | 0.001 to 0.999 | 0.001 to 0.999 | 0.001 to 0.999 | 0.001 to 0.999 |  |  |  |  | 
COC[C@H]1C[C@@H](c2nc3ccc4cc(-c5ccc6c(ccc7nc([C@@H]8CCCN8C(=O)[C@@H](NC(=O)OC)C(C)C)[nH]c76)c5)ccc4c3[nH]2)N(C(=O)[C@H](NC(=O)OC)c2ccccc2)C1 [Example 540] |  |  | 0.001 to 0.99 | 0.001 to 0.999 | 0.001 to 0.999 |  |  | 0.001 to 0.999 | 0.001 to 0.99 | 0.001 to 0.999 | 0.001 to 0.999 | 
COC[C@H]1C[C@@H](c2nc3ccc4cc5c(cc4c3[nH]2)OCc2cc(-c3cnc([C@@H]4CCCN4C(O)[C@@H](NC(=O)OC)[C@@H](C)OC)[nH]3)ccc2-5)N(C(=O)[C@H](NC(=O)OC)c2ccccc2)C1 (some centres unmarked) [Example 618] | 0.001 to 0.999 |  | 0.001 to 0.99 | 0.001 to 0.999 | 0.001 to 0.999 | 0.001 to 0.999 | 0.001 to 0.999 |  |  |  |  | 0.02
COC[C@H]1C[C@@H](c2ncc(-c3ccc4c(c3)COc3cc5c(ccc6nc([C@@H]7C[C@H](C)CN7C(=O)[C@@H](NC(=O)OC)C(C)C)[nH]c65)cc3-4)[nH]2)N(C(=O)[C@H](NC(=O)OC)c2ccccc2)C1 [Example 622] | 0.001 to 0.999 |  | 0.001 to 0.99 | 0.001 to 0.999 | 0.001 to 0.999 | 0.001 to 0.999 | 0.001 to 0.999 |  |  |  |  | 0.016
COC(=O)N[C@H](C(=O)N1[C@@H](C)CC[C@H]1c1ncc(-c2cc3c4c(c2)OCc2cc(-c5cnc([C@@H]6C[C@H](C)CN6C(=O)[C@H](NC(=O)OC)c6ccccc6)[nH]5)cc(c2-4)OC3)[nH]1)C(C)C [Example 586] | 0.001 to 0.999 |  | 0.001 to 0.99 | 0.001 to 0.999 | 0.001 to 0.999 | 0.001 to 0.999 | 0.001 to 0.999 |  |  |  |  | 0.011
COC(=O)N[C@H](C(=O)N1[C@@H](C)CC[C@H]1c1ncc(-c2cc3c4c(c2)OCc2cc(-c5cnc([C@@H]6CC[C@H](C)N6C(=O)[C@@H](NC(=O)OC)[C@@H](C)OC)[nH]5)cc(c2-4)OC3)[nH]1)[C@@H](C)OC [Example 616] | 0.001 to 0.999 |  | 0.001 to 0.99 | 0.001 to 0.999 | 0.001 to 0.999 | 0.001 to 0.999 | 0.001 to 0.999 |  |  |  |  | 0.018
COC[C@H]1C[C@@H](c2ncc(-c3ccc4c(c3)COc3cc5c(ccc6nc([C@@H]7CCCN7C(=O)[C@H](NC(=O)OC)c7ccccc7)[nH]c65)cc3-4)[nH]2)N(C(=O)[C@@H](NC(=O)OC)C(C)C)C1 [Example 625] | 0.001 to 0.999 |  | 0.001 to 0.99 | 0.001 to 0.999 | 0.001 to 0.999 | 0.001 to 0.999 | 0.001 to 0.999 |  |  |  |  | 0.031
COC[C@H]1C[C@@H](c2ncc(-c3ccc4c(c3)COc3cc5c(ccc6nc([C@@H]7CC[C@H](C)N7C(=O)[C@@H](NC(=O)OC)C(C)C)[nH]c65)cc3-4)[nH]2)N(C(=O)[C@@H](NC(=O)OC)[C@@H](C)OC)C1 [Example 610] | 0.001 to 0.999 |  | 0.001 to 0.99 | 0.001 to 0.999 | 0.001 to 0.999 | 0.001 to 0.999 | 0.001 to 0.999 |  |  |  |  | 0.013
COC[C@H]1C[C@@H](c2ncc(-c3cc4c5c(c3)OCc3cc(-c6cnc([C@@H]7C[C@H](C)CN7C(=O)[C@H](NC(=O)OC)c7ccccc7)[nH]6)cc(c3-5)OC4)[nH]2)N(C(=O)[C@@H](NC(=O)OC)C(C)C)C1 [Example 611] | 0.001 to 0.999 |  | 0.001 to 0.99 | 0.001 to 0.999 | 0.001 to 0.999 | 0.001 to 0.999 | 0.001 to 0.999 |  |  |  |  | 0.013
COC(=O)N[C@H](C(=O)N1C[C@@H](COC(F)F)C[C@H]1c1nc2ccc3cc4c(cc3c2[nH]1)OCc1cc(-c2cnc([C@@H]3CCCN3C(=O)[C@H](NC(=O)OC)c3ccccc3)[nH]2)ccc1-4)C(C)C [Example 558] | 0.001 to 0.999 | 0.001 to 0.99 |  | 0.001 to 0.999 | 0.001 to 0.999 | 0.001 to 0.999 | 0.001 to 0.999 |  |  |  |  | 0.014
COC[C@H]1C[C@@H](c2ncc(-c3ccc4c(c3)COc3cc5c(ccc6nc([C@@H]7C[C@H]8C[C@H]8N7C(=O)[C@@H](NC(=O)OC)C(C)C)[nH]c65)cc3-4)[nH]2)N(C(=O)[C@H](NC(=O)OC)c2ccccc2)C1 [Example 633] | 0.001 to 0.999 |  | 0.001 to 0.99 | 0.001 to 0.999 | 0.001 to 0.999 | 0.001 to 0.999 | 0.001 to 0.999 |  |  |  |  | 0.02
COC(=O)N[C@H](C(=O)N1[C@@H](C)CC[C@H]1c1ncc(-c2ccc3c(c2)COc2cc4c(ccc5nc([C@@H]6C[C@H](C)CN6C(=O)[C@H](NC(=O)OC)c6ccccc6)[nH]c54)cc2-3)[nH]1)C(C)C [Example 617] | 0.001 to 0.999 |  | 0.001 to 0.99 | 0.001 to 0.999 | 0.001 to 0.999 | 0.001 to 0.999 | 0.001 to 0.999 |  |  |  |  | 0.005
COC[C@H]1C[C@@H](c2ncc(-c3ccc4c(c3)COc3cc5c(ccc6nc([C@@H]7CCCN7C(=O)[C@H](NC(=O)OC)c7ccccc7)[nH]c65)cc3-4)[nH]2)N(C(=O)[C@@H](NC(=O)OC)[C@@H](C)OC)C1 [Example 626] | 0.001 to 0.999 |  | 0.001 to 0.99 | 0.001 to 0.999 | 0.001 to 0.999 | 0.001 to 0.999 | 0.001 to 0.999 |  |  |  |  | 0.03
COC[C@H]1C[C@@H](c2ncc(-c3ccc4c(c3)COc3cc5c(ccc6nc([C@@H]7C[C@@H]8C[C@@H]8N7C(=O)[C@@H](NC(=O)OC)C(C)C)[nH]c65)cc3-4)[nH]2)N(C(=O)[C@H](NC(=O)OC)c2ccccc2)C1 [Example 636] | 0.001 to 0.999 |  | 0.001 to 0.99 | 0.001 to 0.999 | 0.001 to 0.999 | 0.001 to 0.999 | 0.001 to 0.999 |  |  |  |  | 0.011
